According to US20180312539A1, “METHODS FOR PREPARING HIGH THROUGHPUT PEPTIDOMIMETICS, ORALLY BIOAVAILABLE DRUGS AND COMPOSITIONS CONTAINING SAME” (University of Southern California, priority 2011, published 2018):
Values belong to the compound of their own block, whether it stands above or below them. *1 amine or outer side, *2 acyl side, *3 side chain or, on linkers, in order; H or OH if unused. Where a SMILES comes first, the peptide text is derived from it. Bridges are numbered along the chain shown (N, C = ends). [ ]: non-standard residue; d: D form. The star is where a group is joined. 5FAM = O=C1OC2(c3ccc(O)cc3Oc3cc(O)ccc32)c2ccc(C(=O)*)cc21; Palmitoleoyl = CCCCCC/C=C\CCCCCCCC(=O)*; Glutaryl = O=C(CCCC(=O)[*:2])[*:1]; NMeNva = CCC[C@H](NC)C(=O)O; NMeA = CN[C@@H](C)C(=O)O

Legend:
[1] = mouse, iv
Description: (§1) 200 μL of peptide was administered by IV injection into the tail vein of C57BL6 mice at a dose of 10 mg/kg. 50 μL blood samples were taken at various time points by orbital bleeding using heparin coated capillary tubes and isoflurane for anesthesia. Samples are diluted to 600 μLin TE buffer (pH=8.0) then filtered by centrifugation through a 3000 MWCO filter. The flowthrough was analyzed on a Shimadzu RF-5301 PC fluorometer. Time points were integrated and analyzed using Prism 5.0 software.
(§2) To that end mice were administered peptide conjugated to fluorescein by IV injection into the tail vein. Blood samples were taken by orbital bleeding. Blood peptide concentration was determined by comparing fluorescence to a 15 minute time point.

[2] = set-up: species or system C57BL6 mice; conditions: mouse, in vivo, 10 mg/kg
Description: The following peptides were synthesized for oral administration: […](FAM) (SEQ ID NO: 14), […](FAM)DK(Palmitoleic acid) (SEQ ID NO: 15), and […](FAM) (SEQ ID NO: 16), wherein FAM is a lysine derivative containing fluorescein. All peptides were cyclized from the side chain to lysine to the N-terminus as previously described. Anesthetized C57BL6 mice had peptide administered at a dose of 10 mg/kg by oral gavage. After administration, mice were removed from isoflurane. At various time points, blood samples were taken by orbital bleeding as previously described. Peaks were normalized to a 15 minute time point from mice that had peptide administered by IV injection.
The following peptides were synthesized for oral administration: […](FAM) (SEQ ID NO: 14), […](FAM) (SEQ ID NO: 16), […](FAM)DK(biotin) (SEQ ID NO: 38), and […](FAM)DK(Palmitoleic acid) (SEQ ID NO: 15). All peptides were cyclized from the side chain to lysine to the N-terminus as previously described in Millward, S. W. et al. (2007) ACS Chem. Biol. 2:625. Anesthetized C57BL6 mice had peptide administered at a dose of 10 mgs/Kg by oral gavage. After administration, mice were removed from isoflurane. At various time points, blood samples were taken by orbital bleeding as previously described. Peaks were normalized to a 20 minute time point from mice that had peptide administered by IV injection. Area under the curve was analyzed by Graphpad 5.0.
In addition to accessing intracellular targets in cell culture, deriving a simple modification that would facilitate oral bioavailability of peptidic ligands would be greatly beneficial for therapeutic development. Intestinal absorption of both fatty acids and biotin is nearly 100% efficient. Zempleni, J. and Mock, D. M. (1999) The American Journal of Clinical Nutrition 69:504. […] Applicants synthesized a protease resistant peptide with the sequence […]-mod (designated SUPR peptide) (SEQ ID NO: 50), where A is N-methyl alanine, the peptide is cyclized from lysine to the N-terminus, and K(mod) is lysine with a modified sidechain including either biotin or palmitoleic acid. Palmitoleic acid is a monounsaturated fatty acid chosen for its ability to bind human serum albumin, and its low melting point allowing for more favorable solubility of conjugated peptides as compared to […] fatty acid conjugates. This peptide was administered to mice at a dose of 10 mg/kg by oral gavage. At various time points, blood was taken from the mice by orbital bleeding. After processing, fluorescence was quantified and compared to the maximum signal obtained by IV injection of peptide at the same dose.

[3] = mouse, in vivo, iv, 10 mg/kg
Description: as §1, §2

[4] = Membrane localization on PAMPA membrane; type: in vitro ADME; conditions: 0.2 mM peptide, 0 and 15 min
Source text: Membrane was set up as described above. […] Care was taken not to disrupt the membrane when samples were removed.
In order to study the mechanism of this enhanced permeation in more detail, Applicants quantitated the biotin-peptide conjugate's membrane localization.

[5] = PAMPA (parallel artificial membrane permeability assay); type: in vitro ADME; conditions: lauric acid in place of biotin
Description: PAMPA assays were set up following manufacturer's instructions. Briefly, 1% phosphatidyl choline (Sigma) was dissolved in dodecane (Sigma) at 65° C. for 3 min. The membrane was applied to each well as per manufacturer's instructions. […] 100 μL of sample was put into each donor well. The acceptor wells contained 300 μL of a 5% DMSO in PBS solution. Passive diffusion was allowed to occur at room temperature for 24 hrs. […] Absorbance at 215 nm was monitored. The area under the peptide peak was integrated.
The acceptor well contained 10 mM DTT as a reducing agent. Data was collected after 6, 12 and 24 hrs. Absorbance at 280 nm was analyzed. The following formula was used to calculate Log Pe: […]
Applicants employed a parallel artificial membrane permeability assay (PAMPA) that will allow for the rapid screening of peptide passive diffusion across a phospholipid bilayer. (Schmidt, et al. (2003) J. Millipore Corporation Application Note AN1729EN00.). In this assay, two chambers are separated by a phospholipid bilayer supported on an inert membrane. Applicants chose to initially focus Applicants examination on peptide ligands developed to bind with high affinity to the heterotrimeric G-proteins Gαi1*GDP and Gα12*GDP. Ja, W. W., et al. (2004) Biochemistry 43:9265; Millward, S. W., et al. (2007) ACS Chem. Biol. 2:625; Fiacco, S. et al. (2008) ChemBioChem 9:2200. These ligands included variations in sequence, size, overall charge, and polarity as well as comparing linear and cyclic peptides, end and biotinylation. […] According to classical methods of increasing permeability. Pinski, C. A., et al. (2001) Advanced Drug Delivery Reviews 46:3. Applicants postulated that the removal of hydrogen bond donors by N-methylation should further increase the permeability of this peptide.

[6] = system: SKBR-3 cells; type: cell-based, human
Description: Proliferation was measured by standard BrdU cell proliferation assay (Calbiochem). Cell lines were plated in 96-well plates (20,000 cells/well) in D-10 media with indicated amount of peptide with 2% DMSO, and incubated overnight. The BrdU compound was given to the cells for 2 hrs. Following the manufacturer's protocol, samples were analyzed by UV absorbance measurements at 450 nm. Peptide signal was normalized to cells incubated with 2% DMSO but no peptide. IC50 data was generated by fitting the data to a drug response equation (Log(drug) vs. Response, GraphPad Prism 5.0).
The peptides were then screened for function using a standard in vitro assays used to test efficacy of Her-2 targeting molecules. The assay involved analyzing a molecule's ability to inhibit proliferation in cell culture. A widely used kit is the BrdU cell proliferation assay. In this assay, cells are incubated with the molecule of interest before having their media supplemented with a bromodeoxyuridine. Bromodeoxyuridine is incorporated into the DNA of proliferating cells. DNA with this modified base is recognized with an antibody, and quantitated by ELISA. Applicants tested the peptides and compared them with their parental molecules.

[7] = b
Source text: Table printed on a drawing sheet, FIGURES 5A and 5B
FIG. 5A is Vmax for chymotrypsin digestion of cycGIBP(•), linSUPR(♦), and cycSUPR(▪). A close up of linSUPR and cycSUPR is embedded in the Figure to show the data in more detail. FIG. 5B is a Table showing values for Km and Vmax as derived by processing the data through Graphpad Prism 5.0. Both Km and Vmax are highly optimized for protease resistance in cycSUPR peptide when compared to cycGIBP.
First reader's note: Km and Vmax are kinetic parameters of chymotrypsin digestion of the peptides (protease stability); the sheet prints no unit for Km.

[8] = as known in the field; cited from earlier work
[9] = system: blood sugar; assay: Blood glucose response to insulin; type: in vivo, C57BL6 mice; conditions: oral gavage, 7 nmol/kg
Description: Experimental procedure followed previously published protocols with slight modification, see e.g., (McKern, N. M., et al. (2006) Nature 443:218; Schïffer, L., et al (2003) PNAS 100:4435). Briefly, C57BL6 mice (4 in each group) fasted overnight and were anesthetized using isoflurane prior to taking blood samples by orbital bleeding. Mice were dosed with insulin or biotinylated insulin at a concentration of 3.5 nmol/kg by IV injection into the tail vein. […] In all cases, insulin was in 150 μL of 50 mM sodium phosphate buffer (pH=8.0). Blood was analyzed on a standard Clarity Plus blood glucose meter (VWR). Readings were normalized to a T=0 blood sugar measurement, and analyzed on Graphpad 5.0.
Reacting human insulin with biotin-NHS produced three distinct products that can be separated by HPLC. […] Calceti, P. et al. (2004) European Journal of Pharmaceutical Sciences 22:315; and Tuesca, A., et al. (2009) Pharmaceutical Research 26:727.
Biotinylated insulin and insulin were fed to mice by oral gavage. […] The longer duration of response is likely due to the kinetics of absorption by the intestinal mucosa.

fold increase in in vivo half-life over cycGIBP [1]: 354 fold
bioavailability [2]: 9.8%
oral uptake efficiency ([2]; po): 9.4%
half-life [3]: 18.3 h
Compound: CCCCCC/C=C\CCCCCCCC(=O)NCCCC[C@@H](NC(=O)[C@H](CCCCNC(=O)c1ccc2c(c1)C(=O)OC21c2ccc(O)cc2Oc2cc(O)ccc21)NC(=O)[C@@H]1CCCCNC(=O)CCCC(=O)N[C@@H](CCSC)C(=O)N[C@@H](Cc2ccccc2)C(=O)N[C@@H](Cc2ccc(O)cc2)C(=O)N(C)[C@@H](C)C(=O)N[C@@H](Cc2ccc(O)cc2)C(=O)N[C@@H](CCC(=O)O)C(=O)N[C@@H](Cc2ccc(O)cc2)C(=O)N(C)[C@@H](C)C(=O)N[C@@H](CCC(N)=O)C(=O)N[C@@H](Cc2c[nH]c3ccccc23)C(=O)N[C@@H](CO)C(=O)N1)C(=O)O [FA-cycSUPR] (MFY[NMeA]YEY[NMeA]QWSKK(5FAM)[dK](Palmitoleoyl)-OH; linker N-12 via Glutaryl)

Compound: CCCCCCCCCCCC(=O)O [Lauric acid]
membrane localization [4]: 27%
Log Pe [5]: −6.8

Compound: CCC[C@H]1C(=O)N(C)[C@@H](CCC)C(=O)N[C@@H](CC(C)C)C(=O)N[C@@H](Cc2ccc(O)cc2)C(=O)N[C@@H](CC(=O)O)C(=O)N[C@@H](CC(=O)O)C(=O)N[C@H](C(N)=O)CCCCNC(=O)CCCC(=O)N[C@@H](CCSC)C(=O)N[C@@H](C(C)C)C(=O)N[C@@H](CS)C(=O)N1C [Peptide D] (MVC[NMeNva][NMeNva]LYDDK-NH2; linker N-10 via Glutaryl (inferred); C-terminus assumed)
fold improvement with respect to parental molecule ([6]; EC50/IC50 ratio, peptide 1 vs HRAP, peptide D vs ANHP): ~110 fold
proliferation relative to untreated cells (maximal effect) ([6]; concentrations significantly above the EC50): 56%

Compound: CC[C@H](C)[C@@H]1NC(=O)[C@H](CCSC)NC(=O)CCCC(=O)NCCCC[C@@H](C(N)=O)NC(=O)[C@H]([C@@H](C)O)NC(=O)CNC(=O)[C@H](C)NC(=O)[C@H](C(C)C)NC(=O)[C@H](Cc2ccccc2)NC(=O)[C@H](CCC(=O)O)NC(=O)[C@H](Cc2ccc(O)cc2)NC(=O)[C@H](Cc2c[nH]c3ccccc23)NC(=O)[C@H]([C@@H](C)O)NC1=O [cycGIBP, reference compound] (MITWYEFVAGTK-NH2; linker N-12 via Glutaryl)
half-life [3]: 0.0517 h

Compound: CC[C@H](C)[C@@H]1NC(=O)[C@H](CCSC)NC(=O)CCCC(=O)NCCCC[C@@H](C(N)=O)NC(=O)[C@H]([C@@H](C)O)NC(=O)CNC(=O)[C@H](C)NC(=O)[C@H](C(C)C)NC(=O)[C@H](Cc2ccccc2)NC(=O)[C@H](CCC(=O)O)NC(=O)[C@H](Cc2ccc(O)cc2)NC(=O)[C@H](Cc2c[nH]c3ccccc23)NC(=O)[C@H]([C@@H](C)O)NC1=O [cycGIBP] (MITWYEFVAGTK-NH2; linker N-12 via Glutaryl)
Vmax [7]: 37 nmol/s

Compound: CCCCCC/C=C\CCCCCCCC(=O)O [palmitoleic acid]
oral bioavailability [8]: ~100%

Compound: biotinylated insulin: human insulin singly biotinylated on the N-terminus of the B-chain
effect on blood sugar [9]: produced a typical insulin response

Compound: insulin: unmodified human insulin [reference compound]
effect on blood sugar [9]: no effect on blood sugar
